# In publication PMC10831786 (Virus Research, 2024):
# Values joined by “and” are separate entries in the source; they are usually repeats but may differ in a detail not shown here. Equal values may be shown once. Where a name gives a salt, the structure may show the parent alone. Read-outs that look alike come from different tables or passages of the source.
# Assays:
# [1] = system: protein synthesis in Vero E6 cells; assay: Puromycin pulse labeling, protein synthesis in cultured Vero E6 cells; type: cell-based, African green monkey; conditions: for IC50: Chlorocebus sabaeus
# Protocol: Vero E6 cells were seeded at 30,000 cells per cm^2 in 6-well plates. […] Control experiments were conducted in medium alone and medium containing cycloheximide or DMSO. After 12 min, cells were washed with 37° PBS and then allowed to recover in drug-free 2 % FBS-EMEM for 30 min. Cell pellets, collected by trypsinization and centrifugation for 5 min at 5 000 rpm at 4 °C, were re-suspended in ice-cold PBS and centrifugation was repeated. Collected cells were stored at −80 °C.
# Antibodies used were anti-puromycin monoclonal (TFS; MABE34), goat anti-mouse-HRP (TFS, Invitrogen; G21040), rabbit anti-β-actin (Cell Signaling, 4967S, lot 9) and HRP-conjugated goat-anti-rabbit (Cell Signaling, 7074S, lot 27). Protein extract and immunoblotting methods were done by standard methods reported here as Supplementary Information.
# Vero E6 cells were seeded at 30,000 cells per cm^2 in 6-well plates. […] Puromycin labelling protocols have been well established by other laboratories and a general review of the methods has been published^79. Control experiments were conducted in medium alone and medium containing cycloheximide or DMSO. Following incubation with puromycin for 12 min, the medium was quickly removed and cells were washed with warm PBS and then allowed to recover in drug-free 2% FBS-EMEM for 30 min. Cell pellets, collected by trypsinization and centrifugation for 5 min at 5 000 rpm at 4°C, were re-suspended in ice-cold PBS and the centrifugation was repeated. Collected cells were stored at -80°C until subjected to the protein preparation as noted below.
# Defrosted cell pellets were re-suspended in 120 µl of RIPA (radio-immunoprecipitation) buffer (Sigma; R0278) containing 7 µl of protease inhibitors (Sigma; P8340). Samples were incubated on ice for 40 min with occasional gentle mixing. Cell debris was removed by a 20 min centrifugation at 16,000 g at 4°C and supernatants were stored at -80°C. Protein was measured by the Pierce^TM bicinchoninic acid (BCA) assay (Thermo Fisher Scientific [TFS], MA, USA; 23250), using bovine serum albumin as a standard, according to protocols recommended by the manufacturer.
# For immunoblotting, 10 µg of protein was combined with Laemmli buffer containing 10% β-mercaptoethanol, heated at 95°C for 5 min and loaded on 4-20% Mini-PROTEAN® TGX™ precast protein gels. Samples were resolved by electrophoresis in Tris-Gly-SDS buffer and transferred to nitrocellulose membranes. Transfer was conducted in Tris-Gly buffer containing 20% methanol at 4-6 V/cm^2 for one hour. Membranes were blocked in 10 mM sodium phosphate buffer containing 150 mM NaCl (pH 7.8), 5% milk and 0.1% TWEEN20 (PBST) at room temperature for at least one hour, and then incubated overnight with primary anti-puromycin antibodies (TFS; MABE343 mouse monoclonal antibodies clone 12D10; 1:12,500) at 4°C. Membranes were washed for five minutes three times in PBST and incubated with secondary goat anti-mouse horseradish peroxidase (HRP) -conjugated antibodies (TFS, Invitrogen; G21040; 1:25,000) for 90 min. After three more rounds of washing as above, membranes were incubated with an HRP substrate (TFS; 34077) for one minute and chemoluminescence was visualized by exposing membranes to film for 1, 2, 5, 10 and 30 min.
# For β-actin staining, the same membranes used for puromycin immunostaining were washed four times, 5 min each, in 20 mM Tris-buffered saline containing 500 mM sodium chloride (pH 7.5) and 0.1% TWEEN20 (TBST) and stripped by two rounds of 20 and 10 min washes at 50°C in glycine buffer (pH 2.2) containing 0.1 % SDS (W/V) and 1% TWEEN20. Membranes were then washed at room temperature with PBS (3x10 min) and PBST (2x5min). Blocking, primary (1:4,000) and secondary (1:5,000) antibody staining was conducted as above. Primary rabbit anti-β-actin antibodies were obtained from Cell Signaling (4967S, lot 9) and secondary HRP-conjugated goat-anti-rabbit antibodies were from the same company (7074S, lot 27). […]
# [2] = molecular target: protein synthesis in rabbit reticulocyte lysate; assay: Inhibition of protein synthesis in rabbit reticulocyte lysates (luciferase mRNA translation); type: biochemical
# Protocol: The TnT® Quick Coupled Transcription/Translation System from Promega (WI, USA; L1170) was used to evaluate inhibitory effects of ipecac alkaloids and cycloheximide on protein synthesis. Assay conditions were employed as recommended by the manufacturer. Briefly, reactions (20 μl) contained 80 % TNT Quick master mix, 20 µM methionine, 40 ng/µL luciferase RNA (Promega; L4561), and test chemicals. Samples were incubated at 30 °C for 90 min and diluted 10-fold with PBS. An aliquot (2 μl) was mixed with 20 μl of luciferase assay reagent (Promega; E1500) and luminescence was measured with a Turner Designs luminometer (model TD-20/20).
# [3] = molecular target: T1, l-type calcium current ICaL (Homo sapiens, UniProt Q13936); assay: Patch clamp recording of ICaL in human iPSC-derived cardiomyocytes; type: cell-based
# T1 construct: host or cells: human iPSC-derived ventricular cardiomyocytes
# T1 sequence (Q13936 whole entry): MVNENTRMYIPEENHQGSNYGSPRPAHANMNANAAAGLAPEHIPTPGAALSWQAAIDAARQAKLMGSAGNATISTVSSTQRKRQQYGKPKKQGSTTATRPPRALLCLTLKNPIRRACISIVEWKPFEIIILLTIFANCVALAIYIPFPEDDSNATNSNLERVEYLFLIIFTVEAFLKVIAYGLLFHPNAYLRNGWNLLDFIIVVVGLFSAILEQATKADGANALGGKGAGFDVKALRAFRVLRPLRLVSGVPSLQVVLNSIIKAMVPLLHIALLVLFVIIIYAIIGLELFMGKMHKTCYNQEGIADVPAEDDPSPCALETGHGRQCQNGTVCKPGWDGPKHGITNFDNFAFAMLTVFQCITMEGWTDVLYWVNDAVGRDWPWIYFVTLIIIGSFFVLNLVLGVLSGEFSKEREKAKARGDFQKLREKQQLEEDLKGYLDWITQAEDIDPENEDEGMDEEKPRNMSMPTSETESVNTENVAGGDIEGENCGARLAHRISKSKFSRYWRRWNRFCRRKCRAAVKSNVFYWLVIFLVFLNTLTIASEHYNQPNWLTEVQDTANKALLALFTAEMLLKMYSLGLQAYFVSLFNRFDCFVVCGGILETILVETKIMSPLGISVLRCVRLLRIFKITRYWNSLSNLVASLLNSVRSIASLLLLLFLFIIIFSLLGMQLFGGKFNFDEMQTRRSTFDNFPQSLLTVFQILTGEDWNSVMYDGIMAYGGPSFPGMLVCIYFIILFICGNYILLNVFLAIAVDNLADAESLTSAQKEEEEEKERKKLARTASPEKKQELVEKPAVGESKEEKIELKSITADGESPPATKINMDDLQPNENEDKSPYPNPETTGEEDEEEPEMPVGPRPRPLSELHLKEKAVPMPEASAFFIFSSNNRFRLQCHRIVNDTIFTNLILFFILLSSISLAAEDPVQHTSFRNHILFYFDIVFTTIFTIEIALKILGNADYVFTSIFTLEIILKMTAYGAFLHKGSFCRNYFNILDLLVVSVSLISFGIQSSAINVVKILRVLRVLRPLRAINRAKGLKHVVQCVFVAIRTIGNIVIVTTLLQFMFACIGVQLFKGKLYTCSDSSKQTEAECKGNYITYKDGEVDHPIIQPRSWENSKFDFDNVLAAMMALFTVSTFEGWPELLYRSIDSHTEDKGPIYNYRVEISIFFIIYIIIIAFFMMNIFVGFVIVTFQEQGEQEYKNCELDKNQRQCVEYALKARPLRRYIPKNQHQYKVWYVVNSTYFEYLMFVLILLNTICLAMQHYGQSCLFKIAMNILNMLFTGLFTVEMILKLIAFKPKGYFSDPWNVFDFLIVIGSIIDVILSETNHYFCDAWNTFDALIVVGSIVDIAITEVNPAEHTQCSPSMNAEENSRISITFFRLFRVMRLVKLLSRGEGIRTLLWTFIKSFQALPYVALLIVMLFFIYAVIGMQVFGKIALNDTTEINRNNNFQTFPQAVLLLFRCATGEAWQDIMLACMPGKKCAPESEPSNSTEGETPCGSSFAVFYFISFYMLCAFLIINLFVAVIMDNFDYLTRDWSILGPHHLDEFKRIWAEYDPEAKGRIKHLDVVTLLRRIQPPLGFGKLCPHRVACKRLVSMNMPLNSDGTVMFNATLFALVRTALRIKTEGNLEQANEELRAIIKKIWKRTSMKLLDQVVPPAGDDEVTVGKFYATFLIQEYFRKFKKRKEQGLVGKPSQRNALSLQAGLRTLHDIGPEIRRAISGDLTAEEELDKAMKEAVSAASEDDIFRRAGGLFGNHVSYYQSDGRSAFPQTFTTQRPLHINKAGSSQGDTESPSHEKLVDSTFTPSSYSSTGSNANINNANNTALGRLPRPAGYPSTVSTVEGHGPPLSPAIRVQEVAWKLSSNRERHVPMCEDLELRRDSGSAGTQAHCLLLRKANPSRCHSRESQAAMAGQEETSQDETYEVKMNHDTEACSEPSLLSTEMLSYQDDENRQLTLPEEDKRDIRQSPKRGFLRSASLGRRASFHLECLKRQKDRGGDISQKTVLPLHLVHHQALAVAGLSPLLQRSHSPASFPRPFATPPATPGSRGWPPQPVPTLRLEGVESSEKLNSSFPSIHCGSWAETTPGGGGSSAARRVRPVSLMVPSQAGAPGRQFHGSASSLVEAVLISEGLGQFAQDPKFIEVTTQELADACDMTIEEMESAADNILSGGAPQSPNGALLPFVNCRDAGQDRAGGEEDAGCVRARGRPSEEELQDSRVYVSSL
# T1 sequence (P54289 25-956, further chain): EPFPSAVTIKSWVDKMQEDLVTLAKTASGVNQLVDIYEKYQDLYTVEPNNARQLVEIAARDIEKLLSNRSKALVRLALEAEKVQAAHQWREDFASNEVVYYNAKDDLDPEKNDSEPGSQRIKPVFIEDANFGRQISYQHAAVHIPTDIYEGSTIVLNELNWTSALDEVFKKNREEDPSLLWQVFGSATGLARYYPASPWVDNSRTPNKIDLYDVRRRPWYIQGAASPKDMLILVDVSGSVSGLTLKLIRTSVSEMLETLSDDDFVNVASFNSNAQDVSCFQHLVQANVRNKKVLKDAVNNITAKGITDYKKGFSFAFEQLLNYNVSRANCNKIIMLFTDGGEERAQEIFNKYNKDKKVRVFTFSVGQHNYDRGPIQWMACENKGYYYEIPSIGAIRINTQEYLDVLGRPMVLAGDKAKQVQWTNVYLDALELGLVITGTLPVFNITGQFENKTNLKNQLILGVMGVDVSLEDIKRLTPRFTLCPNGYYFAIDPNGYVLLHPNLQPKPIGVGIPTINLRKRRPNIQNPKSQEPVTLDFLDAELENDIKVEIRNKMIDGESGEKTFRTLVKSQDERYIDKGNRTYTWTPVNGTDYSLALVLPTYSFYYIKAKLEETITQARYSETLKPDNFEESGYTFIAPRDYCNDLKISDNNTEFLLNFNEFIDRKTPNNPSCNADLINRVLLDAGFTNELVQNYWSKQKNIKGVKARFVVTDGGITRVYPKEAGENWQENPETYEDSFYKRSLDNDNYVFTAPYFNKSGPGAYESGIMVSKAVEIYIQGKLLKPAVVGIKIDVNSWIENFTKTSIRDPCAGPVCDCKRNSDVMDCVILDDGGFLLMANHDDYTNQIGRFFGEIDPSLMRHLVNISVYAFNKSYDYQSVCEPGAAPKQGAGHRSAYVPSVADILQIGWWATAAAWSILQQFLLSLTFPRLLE
# T1 sequence (P54289 957-1103, further chain): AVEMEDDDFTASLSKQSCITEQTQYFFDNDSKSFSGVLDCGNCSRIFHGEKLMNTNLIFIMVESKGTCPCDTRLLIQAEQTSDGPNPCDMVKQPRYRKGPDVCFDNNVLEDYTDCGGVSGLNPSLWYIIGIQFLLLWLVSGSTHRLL
# T1 sequence (Q08289 whole entry, further chain): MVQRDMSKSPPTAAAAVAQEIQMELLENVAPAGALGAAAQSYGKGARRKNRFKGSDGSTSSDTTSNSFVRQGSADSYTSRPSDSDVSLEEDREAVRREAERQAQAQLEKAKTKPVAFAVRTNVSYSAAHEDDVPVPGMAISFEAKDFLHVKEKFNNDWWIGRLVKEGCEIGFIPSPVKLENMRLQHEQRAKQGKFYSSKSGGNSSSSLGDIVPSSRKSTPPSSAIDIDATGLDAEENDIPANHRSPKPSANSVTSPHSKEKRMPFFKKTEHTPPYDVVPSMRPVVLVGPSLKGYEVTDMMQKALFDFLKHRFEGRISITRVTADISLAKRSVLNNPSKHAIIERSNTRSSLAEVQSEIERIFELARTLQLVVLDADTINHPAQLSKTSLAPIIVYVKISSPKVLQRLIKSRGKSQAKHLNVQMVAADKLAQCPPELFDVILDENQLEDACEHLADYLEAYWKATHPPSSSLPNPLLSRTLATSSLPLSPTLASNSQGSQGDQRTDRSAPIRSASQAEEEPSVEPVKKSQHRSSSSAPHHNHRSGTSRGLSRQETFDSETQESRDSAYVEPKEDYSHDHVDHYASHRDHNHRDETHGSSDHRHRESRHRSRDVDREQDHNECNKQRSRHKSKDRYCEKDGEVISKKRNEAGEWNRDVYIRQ
# Protocol: iPSC cells (Axol Bioscience Ltd, FL, USA) were plated at a density of 25,000 cells/cm^2 on coverslips coated with 1x Axol Fibronectin Coating Solution in Axol Plating Medium (Axol Cardiomyocyte Maintenance Medium, 10 % fetal bovine serum and 10 μM Y-27,632 2HCl) according to manufacturer's instructions. The next day the medium was changed to Axol Cardiomyocyte Maintenance Medium. Cells were maintained at 5 % CO2, 37 °C in humidified conditions. Medium was replaced every other day.
# An Axopatch −1D (Axon Instruments: Molecular Devices LLC, CA, USA) amplifier and […] were used for recording and data analysis. Patch electrode resistance was set at 4–6 MΩ and room temperature was 22 ± 1 °C. During the recording, cells were held at −50 mV, then, the voltage was gradually raised to +60 mV in 10 mV increments with 300 ms pulse. The bath solution included the following components: 137 mM TEA-Cl, 1 mM MgCl2, 2 mM CaCl2, 10 mM HEPES, 10 mM glucose (pH 7.4, adjusted with TEA-OH). For the pipette the solution contained: 111 mM CsCl, 20 mM TEA-Cl, 10 mM glucose, 10 mM HEPES, 14 mM EGTA, 5 mM MgATP (pH 7.2, adjusted with CsOH).
# D represents the concentrations of a given drug.
# [4] = system: Entamoeba histolytica; conditions: in vitro; ref Burchard and Mirelman, 1988; cited from earlier work
# [5] = system: Entamoeba histolytica; assay: Growth inhibition of Entamoeba histolytica in vitro (literature); type: cell-based; conditions: anti-coronavirus IC50 versus amebae
# [6] = Vero C1008, read-out: IC50, host protein synthesis
# [7] = Vero C1008, Vero E6 cells, 1 h exposure, puromycin labeling, read-out: 50 % inhibitory activities, protein synthesis
Compound,"IC50 [1, 6] [nM]","IC50 [1, 7] [nM]","Protein synthesis,% ([1]; Vero E6, 0.01 μM, listed as EMT) [%]","Protein synthesis,% ([1]; Vero E6, 0.03 μM) [%]","Protein synthesis,% ([1]; Vero E6, 0.1 μM) [%]","Protein synthesis,% ([1]; Vero E6, 1 μM)","Protein synthesis,% ([1]; Vero E6, 1 μM, listed as EMT) [%]","Protein synthesis, puromycilation signal ([1]; Vero E6, > 10 μM)",Concentration above which inhibition of puromycilation is not sustained ([1]; Vero E6 cells) [µM],"IC50 ([2]; luciferase mRNA, 30 °C, 90 min)","Estimated reduction in ICaL ([3]; human cardiomyocytes, assuming 25 µM)",Concentration required to inhibit growth of Entamoeba histolytica [4] [µM],"Protein synthesis, puromycilation signal ([1]; Vero E6, >1 μM)",Inhibitory effects on translation in rabbit reticulocyte lysate ([2]; concentration range 0.1 - 100 μM),"IC50, protein synthesis inhibition in rabbit reticulocyte lysate ([2]; luciferase mRNA, 30 °C, 90 min)","Fold, antiviral concentrations lower than those required to kill amebae [5]","Protein synthesis,% ([1]; Vero E6, 0.01 μM) [%]",Kd [3] [nM],"Peak current density, ICaL ([3]; human IPSC-derived cardiomyocytes, DHE4 30 uM (control 13.5))","Peak current density, ICaL, washout ([3]; human IPSC-derived cardiomyocytes, after washout of DHE4 30 uM (control 13.5))"
"CC[C@H]1CN2CCc3cc(OC)c(OC)cc3[C@@H]2C[C@@H]1C[C@H]1NCCc2cc(OC)c(OC)cc21 [Emetine, 2H-Benzoaquinolizine, 3-ethyl-1,3,4,6,7,11b-hexahydro-9,10-dimethoxy-2-(1R)-1,2,3,4-tetrahydro-6,7-dimethoxy-1-isoquinolinylmethyl-, dihydrochloride, (2S,3R,11bS)-, reference compound]",150 to 170,~110,20,50,50,terminating all translation activity,100,signal increase,> 10,1200 nM and 1210 nM,approximately one-third,12 to 25,,,,,,,,
"CC[C@H]1CN2CCc3cc(OC)c(OC)cc3[C@@H]2C[C@@H]1C[C@@H]1NCCc2cc(OC)c(OC)cc21.Cl.Cl [Isoemetine, 2H-Benzoaquinolizine, 3-ethyl-1,3,4,6,7,11b-hexahydro-9,10-dimethoxy-2-(1S)-1,2,3,4-tetrahydro-6,7-dimethoxy-1-isoquinolinylmethyl-, dihydrochloride, (2S,3R,11bS)-]",,,,,0,,,,> 1,,,,signal increase,no inhibitory effects,Not active,,,,,
"CCC1=C(C[C@H]2NCCc3cc(OC)c(OC)cc32)C[C@H]2c3cc(OC)c(OC)cc3CCN2C1 [DHE4, 4H-Benzo[a]quinolizine, 3-ethyl-1,6,7,11b-tetrahydro-9,10-dimethoxy-2-[[(1R)-1,2,3,4-tetrahydro-6,7-dimethoxy-1-isoquinolinyl]methyl]-, (11bS)-]",150 to 170,~210,,,20,,,signal increase,> 10,1300 nM and 1330 nM,,,,,,125–250 fold,15,60000,8.9,9.8
